Data published in patent US7652055B2, “2-imidazolines” (Hoffman-La Roche Inc., priority 2007, dated 2010).

Molecular target: T1, TAAR1 (Mus musculus, UniProt Q923Y8)
T1 construct: expressed in transfected cells; host or cells: HEK293 (ATCC # CRL-1573), stably transfected with pIRESneo2 expression plasmid; membranes prepared
Test: Radioligand binding assay on membranes of HEK293 cells stably expressing TAAR1
Settings: for Ki: mouse TAAR1, radioligand [3H]-rac-2-(1,2,3,4-tetrahydro-1-naphthyl)-2-imidazoline at 60 nM, 4° C., 30 min
Experimental: Construction of TAAR Expression Plasmids and Stably Transfected Cell Lines
For the construction of expression plasmids the coding sequences of human, rat and mouse TAAR 1 were amplified from genomic DNA essentially as described by Lindemann et al.. The Expand High Fidelity PCR System (Roche Diagnostics) was used with 1.5 mM Mg^2+ and purified PCR products were cloned into pCR2.1-TOPO cloning vector (Invitrogen) following the instructions of the manufacturer. PCR products were subcloned into the pIRESneo2 vector (BD Clontech, Palo Alto, Calif.), and expression vectors were sequence verified before introduction in cell lines.
HEK293 cells (ATCC # CRL-1573) were cultured essentially as described Lindemann et al. (2005). For the generation of stably transfected cell lines HEK293 cells were transfected with the pIRESneo2 expression plasmids containing the TAAR coding sequences (described above) with Lipofectamine 2000 (Invitrogen) according to the instructions of the manufacturer, and 24 hrs post transfection the culture medium was supplemented with 1 mg/ml G418 (Sigma, Buchs, Switzerland). After a culture period of about 10 d clones were isolated, expanded and tested for responsiveness to trace amines (all compounds purchased from Sigma) with the cAMP Biotrak Enzyme immunoassay (EIA) System (Amersham) following the non-acetylation EIA procedure provided by the manufacturer.
Membrane Preparation and Radioligand Binding
Cells at confluence were rinsed with ice-cold phosphate buffered saline without Ca^2+ and Mg^2+ containing 10 mM EDTA and pelleted by centrifugation at 1000 rpm for 5 min at 4° C. The pellet was then washed twice with ice-cold phosphate buffered saline and cell pellet was frozen immediately by immersion in liquid nitrogen and stored until use at −80° C. Cell pellet was then suspended in 20 ml HEPES-NaOH (20 mM), pH 7.4 containing 10 mM EDTA, and homogenized with a Polytron (PT 3000, Kinematica) at 10,000 rpm for 10 s. The homogenate was centrifuged at 48,000×g for 30 min at 4° C. and the pellet resuspended in 20 ml HEPES-NaOH (20 mM), pH 7.4 containing 0.1 mM EDTA (buffer A), and homogenized with a Polytron at 10,000 rpm for 10 s. The homogenate was then centrifuged at 48,000×g for 30 min at 4° C. and the pellet resuspended in 20 ml buffer A, and homogenized with a Polytron at 10,000 rpm for 10 s. Protein concentration was determined by the method of Pierce (Rockford, Ill.). The homogenate was then centrifuged at 48,000×g for 10 min at 4° C., resuspended in HEPES-NaOH (20 mM), pH 7.0 including MgCl2 (10 mM) and […] homogenized with a Polytron at 10,000 rpm for 10 s.
Binding assay was performed at 4° C. in a final volume of 1 ml, and with an incubation time of 30 min. The radioligand [^3H]-rac-2-(1,2,3,4-tetrahydro-1-naphthyl)-2-imidazoline was used at a concentration equal to the calculated Kd value of 60 nM to give a bound at around 0.1% of the total added radioligand concentration, and a specific binding which represented approximately 70-80% of the total binding. Non-specific binding was defined as the amount of [^3H]-rac-2-(1,2,3,4-tetrahydro-1-naphthyl)-2-imidazoline bound in the presence of the appropriate unlabelled ligand (10 μM). Competing ligands were tested in a wide range of concentrations (10 pM-30 μM). […] Each experiment was performed in duplicate. All incubations were terminated by rapid filtration through UniFilter-96 plates (Packard Instrument Company) and glass filter GF/C, pre-soaked for at least 2 h in polyethylenimine 0.3%, and using a Filtermate 96 Cell Harvester (Packard Instrument Company). The tubes and filters were then washed 3 times with 1 ml aliquots of cold buffer B. Filters were not dried and soaked in Ultima gold (45 μl/well, Packard Instrument Company) and bound radioactivity was counted by a TopCount Microplate Scintillation Counter (Packard Instrument Company).

T1 sequence (Q923Y8 whole entry): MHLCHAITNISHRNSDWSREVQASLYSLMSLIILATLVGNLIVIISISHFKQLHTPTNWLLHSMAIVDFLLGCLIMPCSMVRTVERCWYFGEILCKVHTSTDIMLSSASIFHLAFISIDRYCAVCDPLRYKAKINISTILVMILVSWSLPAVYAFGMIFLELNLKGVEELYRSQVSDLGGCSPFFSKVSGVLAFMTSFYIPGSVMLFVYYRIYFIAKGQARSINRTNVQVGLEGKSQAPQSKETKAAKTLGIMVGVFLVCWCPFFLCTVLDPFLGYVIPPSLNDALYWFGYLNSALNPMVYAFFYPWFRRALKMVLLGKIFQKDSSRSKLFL

SMILES	Ki [µM]	Kd (radioligand of the binding assay, TAAR1 species not stated at this place, read-out: calculated Kd value of the radioligand) [nM]
CC(Oc1c(Cl)cccc1Cl)C1=NCCN1 (stereo not drawn) [Example K21, 2-[1-(2,6-Dichloro-phenoxy)-ethyl]-4,5-dihydro-1H-imidazole]	0.0262	
Clc1ccccc1OCC1=NCCN1 [Example K10, 2-(2-Chloro-phenoxymethyl)-4,5-dihydro-1H-imidazole]	0.064	
CC(C)Oc1ccc(C(=O)CCc2ccc(OC(C)C3=NCCN3)cc2)cc1 (stereo not drawn) [Example 12, 3-{4-[1-(4,5-Dihydro-1H-imidazol-2-yl)-ethoxy]-phenyl}-1-(4-isopropoxy-phenyl)-propan-1-one]	0.0158	
c1ccc(CCCc2ccc(OCC3=NCCN3)cc2)cc1 [Example 15, 2-[4-(3-Phenyl-propyl)-phenoxymethyl]-4,5-dihydro-1H-imidazole]	0.0441	
Cc1c(NCC2=NCCN2)ccc2occc12 [Example 7, (4,5-Dihydro-1H-imidazol-2-ylmethyl)-(4-methyl-benzofuran-5-yl)-amine]	0.0028	
COc1ccccc1N(C)CC1=NCCN1 [Example 9, (4,5-Dihydro-1H-imidazol-2-ylmethyl)-(2-methoxy-phenyl)-methyl-amine]	0.0432	
FC(F)(F)c1cccc(OCC2=NCCN2)c1Cl [Example 20, 2-(2-Chloro-3-trifluoromethyl-phenoxymethyl)-4,5-dihydro-1H-imidazole]	0.0016	
FC(F)(F)c1cccc(OCC2=NCCN2)c1 [Example K17, 2-(3-Trifluoromethyl-phenoxymethyl)-4,5-dihydro-1H-imidazole]	0.0913	
Clc1cccc(OCC2=NCCN2)c1Cl [Example K12, 2-(2,3-Dichloro-phenoxymethyl)-4,5-dihydro-1H-imidazole]	0.0063	
c1ccc2c(c1)CCCC2C1=NCCN1 (racemic) [[^3H]-rac-2-(1,2,3,4-tetrahydro-1-naphthyl)-2-imidazoline, reference compound]		60
CN(CC1=NCCN1)c1cccc(Cl)c1 [Example 3, (3-Chloro-phenyl)-(4,5-dihydro-1H-imidazol-2-ylmethyl)-methyl-amine]	0.0084	
Clc1ccc(NCC2=NCCN2)cc1 [Example K1, (4-Chloro-phenyl)-(4,5-dihydro-1H-imidazol-2-ylmethyl)-amine]	0.023	
Cc1c(Cl)cccc1NNC1=NCCN1 [Example K25, N-(3-Chloro-2-methyl-phenyl)-N′-(4,5-dihydro-1H-imidazol-2-yl)-hydrazine]	0.0057	
Clc1cccc(NCC2=NCCN2)c1 [Example K2, (3-Chloro-phenyl)-(4,5-dihydro-1H-imidazol-2-ylmethyl)-amine]	0.007	
Clc1ccc(OCC2=NCCN2)cc1Cl [Example 27, 2-(3,4-Dichloro-phenoxymethyl)-4,5-dihydro-1H-imidazole]	0.0329	
CN(CC1=NCCN1)c1ccc(Cl)c(Cl)c1 [Example 4, (3,4-Dichloro-phenyl)-(4,5-dihydro-1H-imidazol-2-ylmethyl)-methyl-amine]	0.0059	
c1ccc(Cc2cccc(OCC3=NCCN3)c2)cc1 [Example 14, 2-(3-Benzyl-phenoxymethyl)-4,5-dihydro-1H-imidazole]	0.0054	
Fc1cc(NCC2=NCCN2)ccc1Cl [Example 2, (4-Chloro-3-fluoro-phenyl)-(4,5-dihydro-1H-imidazol-2-ylmethyl)-amine]	0.0011	
Cc1c(O)ccc(OCC2=NCCN2)c1C [Example 24, 4-(4,5-Dihydro-1H-imidazol-2-ylmethoxy)-2,3-dimethyl-phenol]	0.093	
COc1ccc(Cc2ccc(NCC3=NCCN3)cc2)cc1 [Example 8, (4,5-Dihydro-1H-imidazol-2-ylmethyl)-[4-(4-methoxy-benzyl)-phenyl]-amine]	0.0443	
Fc1cccc(OCC2=NCCN2)c1F [Example 21, 2-(2,3-Difluoro-phenoxymethyl)-4,5-dihydro-1H-imidazole]	0.0341	
c1ccc(C2CC2)c(OCC2=NCCN2)c1 [Example K20, 2-(2-Cyclopropyl-phenoxymethyl)-4,5-dihydro-1H-imidazole]	0.0325	
Clc1cccc(SCC2=NCCN2)c1Cl [Example 31, 2-(2,3-Dichloro-phenylsulfanylmethyl)-4,5-dihydro-1H-imidazole]	0.0075	
CC(C)Oc1ccc(OCc2ccc(OCC3=NCCN3)cc2)cc1 [Example 13, 2-[4-(4-Isopropoxy-phenoxymethyl)-phenoxymethyl]-4,5-dihydro-1H-imidazole]	0.025	
Clc1cc(NCC2=NCCN2)ccc1Br [Example 1, (4-Bromo-3-chloro-phenyl)-(4,5-dihydro-1H-imidazol-2-ylmethyl)-amine]	0.0022	
Cc1ccc(NNC2=NCCN2)cc1C [Example 35, N-(4,5-Dihydro-1H-imidazol-2-yl)-N′-(3,4-dimethyl-phenyl)-hydrazine]	0.044	
c1cc2ccc(OCC3=NCCN3)cc2o1 [Example 17, 2-(Benzofuran-6-yloxymethyl)-4,5-dihydro-1H-imidazole]	0.0372	
